Test results: patent publication US8293231B2, “Methods and compositions for treating ischemia” (Blue Blood Biotech Corp., priority 2005, dated 2012)

Legend:
[1] = tested on: PAI activity in conditioned media of HUVECs; test: Plasminogen activator inhibitor (PAI) activity assay; format: cell-based, human; details: 12 h; 100 or 1000 ng/mL TMD23, 70 ng/mL PMA, 10 ng/mL VEGF
Method: (§1) HUVECs were seeded at 80% confluence on 100-mm dishes in M199 medium. After 24 h, cells were rinsed with serum-free M199 twice and incubated in serum-free M199 with various concentrations of TMD23, VEGF (10 ng/mL), or PMA (70 ng/mL) for 12 h. The conditioned medium containing […] secreted proteins was analyzed by gelatin- and casein-based zymographies. The digested area appeared clear on a blue background, indicating the location of matrix metalloproteinase (MMP) activity. To further verify MMP caseinolytic activity, the casein-containing gel was incubated with incubation buffer containing 10 mM EDTA, an inhibitor of MMPs, to observe disappearance of the clear band. Plasminogen activator inhibitor (PAI) activity was measured by titrating samples with increasing amounts of tissue-type plasminogen activator (t-PA) (Boehringer Ingelheim) into a fixed volume of endothelial-cell-conditioned media.
as §1, with “zymographies. Lee O H, et al., Identification of angiogenic properties of insulin-like growth factor II in in vitro angiogenesis models. Brit J. Cancer. 2000; 82:385-391.” for “zymographies.”, “media. Shi G Y., et al., Plasmin and the regulation of tissue-type plasminogen activator biosynthesis in human endothelial cells. […]” for “media.”

HUVECs [2] = test: In vitro Matrigel angiogenesis assay (tube formation); format: cell-based, human; details: for Effect on the stimulatory effect of TMD23 on HUVEC tube formation: IgG 10 μg/mL, inhibitors 10 μM
Method: (§2) Growth-factor-reduced Matrigel (BD Biosciences) was thawed at 4° C. A total of 200 μL Matrigel was added to wells of a 48-well plate and polymerized 30 min at 37° C. Two hundred μL cell suspension containing various concentrations of VEGF, TMD23, or TMD23 in the presence of polyclonal rabbit anti-TMD23 antibody (10 μg/mL) or various signaling pathway inhibitors were plated onto Matrigel-coated wells at a density of 2.4×10^4 cells/well in M199 containing 10% FBS for 24 h at 37° C. in a 5% CO2 humidified atmosphere. Each concentration was tested in triplicate in the same plate, with wells photographed using a Leica camera (40× magnification). Tube length was quantified by measuring tubes in five randomly chosen fields from each well using MetaMorph software. Experiments were repeated at least three times.
as §2, with “5° k” for “5%”

[3] = tested on: Matrigel plugs in FVB mice; test: Murine angiogenesis assay (Matrigel plug); format: in vivo; details: for Appearance of Matrigel plugs, with heparin: day 4, plus heparin (30 U), TMD23 10, 100, or 1,000 ng, bFGF 250 ng, VEGF 50 ng; for Magnitude of angiogenic reaction with heparin versus without: gels supplemented with both angiogenic factor and heparin
Method: To assess angiogenic effects in vivo, growth-factor-reduced liquid Matrigel (0.5 mL) containing heparin (60 U/mL) and various concentrations of TMD23, bFGF or VEGF was subcutaneously injected into FVB mice near the abdominal midline. Matrigel with PBS plus heparin served as the negative control, with bFGF and VEGF plus heparin as the positive control. Four days after injection, mice were sacrificed and Matrigel plugs were surgically removed. For macroscopic analysis of angiogenesis, hemoglobin content in Matrigel was measured using Drabkin reagent 525 (Sigma-Aldrich). For histological analysis, rat anti-mouse CD31 (PECAM-1, platelet endothelial cell adhesion molecule-1) antibody (Pharmingen) was used. The same specimens were used for hematoxylin and eosin (H&E) staining.

[4] = tested on: Matrigel plugs in FVB mice; test: Murine angiogenesis assay (Matrigel plug); format: in vivo
HUVECs [5] = test: Chemotaxis assay (Transwell); format: cell-based, human; details: inhibitor or antibody present with TMD23
Method: (§3) The chemotactic motility of HUVECs was assayed using Transwell (Costar) with 6.5-mm diameter polycarbonate filters (8-μm pore size). The lower filter surface was coated with 10 μg gelatin (Sigma-Aldrich). Various concentrations of TMD23 in the absence or presence of 10 μg/mL polyclonal rabbit anti-TMD23 antibody or 10 ng/mL vascular endothelial growth factor (VEGF) (R & D Systems, Inc.) in M199 were placed in the lower wells. One hundred mL cell suspension containing 1×10^5 cells was loaded into each of upper well. The chamber was incubated at 37° C. for 4 h. Cells were fixed with methanol and stained with 4′,6′-diamidino-2-phenylindole (DAPI). Chemotaxis was quantified with optical microscopy (Leica) at 100× magnification using MetaMorph imaging software (Universal Imaging Corporation) by counting the cells that migrated to the filter's lower side. Five random fields in each well were counted. Each sample was assayed in triplicate, and assays were repeated three times. To determine the role of extracellular signal-regulated kinase 1/2 (ERK1/2), p38 mitogen-activated protein kinase (MAPK), and phosphatidylinositol 3-kinase (PI3 kinase)-protein kinase B/Akt (Akt) in TMD23-mediated cell migration, assays were performed in the presence of U0126, a MAPK/ERK kinase (MEK) inhibitor, SB 203580, a p38 MAPK inhibitor, and LY 294002, a PI3 kinase inhibitor. Cell viability as determined by trypan blue staining was not altered by treatment. 00126 was purchased from Promega, with SB 203580 and LY 294002 from Calbiochem.
as §3, with “hundred μL” for “hundred mL”, “MAPK/ERK kinase-(MEK)” for “MAPK/ERK kinase (MEK)”, “treatment. U0126” for “treatment. 00126”

[6] = tested on: MMP-1, MMP-2, MMP-3, and MMP-9 in HUVEC conditioned medium; test: Gelatin and casein zymographies; format: cell-based, human; details: 10 mM EDTA in incubation buffer
Method: as §1
as §1, with “zymographies. Lee O H, et al., Identification of angiogenic properties of insulin-like growth factor II in in vitro angiogenesis models. Brit J. Cancer. 2000; 82:385-391.” for “zymographies.”, “media. Shi G Y., et al., Plasmin and the regulation of tissue-type plasminogen activator biosynthesis in human endothelial cells. […]” for “media.”

[7] = tested on: human melanoma A2058 cells in Matrigel; test: Effect of TMD23 on tumor neoangiogenesis; format: in vivo, athymic nude mice; details: 18 days
Method: To assess TMD23 effects on tumor neoangiogenesis, 1×10^6 human melanoma A2058 cells (ATCC® CRL-11147) were mixed with Matrigel (0.5 mL) containing heparin (60 U/mL) and various concentrations of TMD23 and subcutaneously injected into athymic nude mice. Matrigel plugs were harvested after 18 days and frozen in liquid nitrogen. Blood vessels were detected by immunohistochemistry using anti-CD31 antibody as described above. Microvessel density (MVD) was calculated by counting six highly vascularized fields in each section (200× magnification; MetaMorph software).

[8] = tested on: human umbilical vein endothelial cells (HUVECs); test: Cell proliferation assay (BrdU incorporation); format: cell-based; details: BrdU incorporation, FIG. 2A
Method: To evaluate the effect of TMD proteins on DNA synthesis in human umbilical vein endothelial cells (HUVECs), we performed a 5-bromo-2′-deoxyuridine (BrdU) incorporation assay with a commercial quantification kit (Roche Diagnostic GmbH) and manufacturer's protocol. Mitogenic effects induced by TMD proteins were also determined in the presence of polyclonal rabbit anti-TMD23 antibody (prepared by GlycoNex, Inc., Taiwan) that was purified by protein G-Sepharose column (Amersham Pharmacia Biotech AB).
To evaluate the effect of TMD proteins on DNA synthesis in human umbilical vein endothelial cells (HUVECs), a 5-bromo-2′-deoxyuridine (BrdU) incorporation assay were performed with a commercial quantification kit (Roche Diagnostic GmbH) and manufacturer's protocol. Mitogenic effects induced by TMD proteins were also determined in the presence of polyclonal rabbit anti-TMD23 antibody (prepared by GlycoNex, Inc., Taiwan) that was purified by protein G-Sepharose column (Amersham Pharmacia Biotech AB).

## CCCCCCCCCCCCCC(=O)O[C@@H]1[C@@H](C)[C@@]2(O)[C@@H](C=C(CO)C[C@]3(O)C(=O)C(C)=C[C@@H]23)[C@@H]2C(C)(C)[C@]12OC(C)=O [PMA]
[1]
  PAI activity in conditioned media of HUVECs: decreased significantly

## COC(=O)[C@@H](N)CCCNC(=N)N[N+](=O)[O-] [L-NAME, N^G-nitro-L-arginine methyl ester]
HUVECs [2]
  Effect on the stimulatory effect of TMD23 on HUVEC tube formation: blocked

## vascular endothelial growth factor [VEGF, reference compound]
[1]
  PAI activity in conditioned media of HUVECs: decreased significantly
HUVECs [2]; 24 h, VEGF 10 ng/mL, TMD23 5 to 250 ng/mL
  HUVEC tube formation on Matrigel: formed elongated capillary-like structures, with complete networks
[3]
  Appearance of Matrigel plugs, with heparin: bright red
  Magnitude of angiogenic reaction with heparin versus without: considerably greater
[3]; plus heparin, compared with controls
  Hemoglobin content of recovered Matrigel plugs: significantly increased
[4]
  Appearance of Matrigel plugs, without heparin: pale

## C[S+]([O-])c1ccc(-c2nc(-c3ccncc3)c(-c3ccc(F)cc3)[nH]2)cc1 (stereo not shown) [SB 203580, reference compound]
HUVECs [5]
  Effect on the stimulatory effect of TMD23 on HUVEC migration: blocked
HUVECs [2]
  Effect on the stimulatory effect of TMD23 on HUVEC tube formation: blocked

## O=C(O)CN(CCN(CC(=O)O)CC(=O)O)CC(=O)O [EDTA, reference compound]
[6]
  Effect on the caseinolytic MMP-3 band: blocked specifically

## basic fibroblast growth factor [bFGF, reference compound]
[3]
  Appearance of Matrigel plugs, with heparin: bright red
  Magnitude of angiogenic reaction with heparin versus without: considerably greater
[7]
  Blood vessels in Matrigel plugs (CD31 staining): significantly more blood vessels
[7]; compared with A2058 cells alone
  Tumor size developed by Matrigel plugs containing A2058 cells: bigger
[4]
  Appearance of Matrigel plugs, without heparin: pale

## N#CC(=C(/N)Sc1ccccc1N)/C(C#N)=C(\N)Sc1ccccc1N [U0126, reference compound]
HUVECs [5]
  Effect on the stimulatory effect of TMD23 on HUVEC migration: blocked
HUVECs [2]
  Effect on the stimulatory effect of TMD23 on HUVEC tube formation: blocked

## TMD2: Recombinant human thrombomodulin fragment, amino acids Ala242-Cys480 of SEQ ID NO: 2, containing six EGF-like structures (D2)
[8]
  DNA synthesis in HUVECs: stimulated DNA synthesis
